From patent US10472334B2, “Small molecules for inhibiting male fertility” (The University of North Carolina at Chapel Hill, priority 2014, dated 2019)
Like-named read-outs stand apart in the source and are kept apart here.

Test system: human sperm motility
Experiment: Computer-assisted sperm analysis (CASA) of human sperm motility
Type: cell-based
Procedure: In another embodiment, a computer-assisted sperm analysis (CASA) can be used as a live cell compound screen for determining the effect of compounds on human sperm motility. Additionally, to facilitate the IC50 evaluation of compounds using different ejaculates, reducing inter-assay variation due to differences in sperm quality in different semen samples, an index of relative motility inhibition (RMI) was developed.
This is calculated as: RMI=[% motility*VSL]; percentage of motile sperm (% motility) or the percentage of progressively motile sperm (% progressive motility, RPMI) multiplied by the straight-line velocity (VSL); the average velocity measured in a straight line from the beginning to the end of a track in μm/sec.
Normalized RMI can be calculated by dividing the RMI of each experimental condition by its respective DMSO control.
Computer-assisted sperm analysis (CASA) was used as a live cell compound screen for determining the effect of compounds on human sperm motility. Computer-assisted sperm analysis (CASA) was performed using the approach taught in Mitra et al., Biology of Reproduction, Vol. 82, p 491 (2010), to determine the parameters of the control versus compound-treated spermatozoa. The parameters measured are: average pathway velocity (VAP: the average velocity of the smoothed cell path in 1 m/sec), the straight-line velocity (VSL: the average velocity measured in a straight line from the beginning to the end of track in 1 m/sec), the curvilinear velocity (VCL: the average velocity measured over the actual point-to-point track of the cell in 1 m/sec), the lateral head amplitude (ALH: amplitude of lateral head displacement in 1 m), the beat cross-frequency (BCF: frequency of sperm head crossing the sperm average path in Hz), the straightness (STR: the average value of the ratio VSL/VAP in %), and the linearity (LIN: the average value of the ratio VSL/VCL in %). The sperm motility parameters are assessed in pre-warmed (37° C.) two- or four-chambered 20-mm Leja slides, loading 5 μL or 2 μL, respectively, of the samples in each chamber and immediately using CASA. This computerized measuring device included a phase-contrast microscope (Olympus CX41), a camera, a mini-therm stage warmer, an image digitizer, and a computer to store and analyze data. The software used for data analysis is the HTR Ceros 12.3 (Hamilton-Thorne Biosciences). A range of 13 to 20 fields are scanned from each chamber. Progressive cells had to have a minimum of 25 μm/sec VAP and 80% of STR.
To facilitate the IC50 evaluation of compounds using different ejaculates, reducing inter-assay variation due to differences in sperm quality in different semen samples, an index of relative motility inhibition (RMI) was developed. This is calculated as: RMI=[% motility*VSL]; percentage of motile sperm (% motility) or the percentage of progressively motile sperm (% progressive motility, RPMI) multiplied by the straight-line velocity (VSL); the average velocity measured in a straight line from the beginning to the end of a sperm track in μm/sec. Normalized RMI (RPMI) was calculated by dividing the RMI of each experimental condition by its respective DMSO control.
The analysis of sperm motility was carried out with computer-assisted sperm analysis (CASA) (Ceros version 12.3 software; Hamilton-Thorne), using the techniques taught in Mitra et al., Biology of Reproduction, Vol. 82, p 491 (2010).

CCOC(=O)CSc1nc(=O)c(NCC(=O)OC)n[nH]1 [Compound B4, methyl N-{3-[(2-ethoxy-2-oxoethyl)sulfanyl]-5-oxo-2,5-dihydro-1,2,4-triazin-6-yl}glycinate]
IC50 (Homo sapiens, Sperm, read-out: CASA): 11.4 µM

COC(=O)NNc1nc(Nc2ccc(NC(=O)OC)c(O)c2)nc(SCC(C)=O)n1 [EP012]
IC50 (Homo sapiens, Sperm, FIG. 10, RMI using % progressive motility, read-out: IC50 in terms of progressive motility): ~3.4 µM

B1: SEMG1: semenogelin protein that binds EPPIN and inhibits progressive motility of ejaculate spermatozoa (protein, UniProt P04279 24-462, looked up)
Semenogelin-1: QKGGSKGRLPSEFSQFPHGQKGQHYSGQKGKQQTESKGSFSIQYTYHVDANDHDQSRKSQQYDLNALHKTTKSQRHLGGSQQLLHNKQEGRDHDKSKGHFHRVVIHHKGGKAHRGTQNPSQDQGNSPSGKGISSQYSNTEERLWVHGLSKEQTSVSGAQKGRKQGGSQSSYVLQTEELVANKQQRETKNSHQNKGHYQNVVEVREEHSSKVQTSLCPAHQDKLQHGSKDIFSTQDELLVYNKNQHQTKNLNQDQQHGRKANKISYQSSSTEERRLHYGENGVQKDVSQSSIYSQTEEKAQGKSQKQITIPSQEQEHSQKANKISYQSSSTEERRLHYGENGVQKDVSQRSIYSQTEKLVAGKSQIQAPNPKQEPWHGENAKGESGQSTNREQDLLSHEQKGRHQHGSHGGLDIVIIEQEDDSDRHLAQHLNNDRNPLFT
IC50 (FIGS. 3 and 4, read-out: IC50, CASA, RMI (relative motility)): ~9 µM
EC50 (calculated EC50 value, read-out: EC50 for inhibiting sperm motility): 8.8 µM
